We go through seven compounds from the supplement of paper PMC11061612.

What all share (assay): Bliss excess, mean over the matrix (fraction); higher = more synergy
Experiment [1] relates to NCI-H1573 (Lung Adenocarcinoma). Put shortly:
(§1)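 Cell lines grown in DMEM/F12 or RPMI with 10% FBS were plated in 1536-well plates and held 24 hours at 37°C, 5% CO2 before 72 hours of exposure to two-drug dose matrices, with DMSO typically at 0.2%. CellTiter-Glo 2.0 luminescence gave viability, which was converted to inhibition. Vehicle wells were set to 0 and blank wells to 1. Combination Emax is the second-highest inhibition in the matrix, and Bliss excess is the observed combination effect minus the expected EA + EB − EA·EB, where EA and EB are the single-agent effects.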

Experiment [2] concerns LOU-NH91 (Squamous Cell Lung Carcinoma). In short, it runs like this: as §1
The subject of experiment [3] is PF-382 (T-Lymphoblastic Leukemia). In short, it runs like this:
as §1

Experiment [4] concerns NCI-N87 (Gastric Carcinoma). In short, it runs like this: as §1
The test system of experiment [5] is OCUM-1 (Gastric Carcinoma). In short, it runs like this:
as §1

The next experiment deals with GI-1 (Glioblastoma). In short, it runs like this: as §1
Experiment [6] has as its system NCI-H2405 (Lung Adenocarcinoma). Put shortly: as §1
In a further experiment the test system is IMR-5 (Neuroblastoma). In short, it runs like this:
as §1

Experiment [7] concerns SNU-C1 (Colorectal Carcinoma). In short, it runs like this: as §1
The test system of a further experiment is BT-20 (Breast Carcinoma). In short, it runs like this: as §1
The next experiment relates to EW-3 (Ewing's Sarcoma). Put shortly:
as §1

For experiment [8], the system named is NCI-H513 (Other Solid Carcinomas). In short, it runs like this: as §1
Experiment [9] has as its system LC4-1 (B-Lymphoblastic Leukemia). In short, it runs like this:
as §1

The subject of experiment [10] is HSC-2 (Oral Cavity Carcinoma). In short, it runs like this:
as §1

In experiment [11] the test system is HC-1 (Other Blood Carcinomas). In short, it runs like this:
as §1

For a further experiment, the system named is A704 (Kidney Carcinoma). In short, it runs like this: as §1
Another experiment concerns RPMI-7951 (Melanoma). Put shortly:
as §1

The subject of experiment [12] is DG-75 (Burkitt's Lymphoma). In short, it runs like this: as §1
Experiment [13] has as its system KP-2 (Pancreatic Carcinoma). Put shortly: as §1

Regarding `CN(C)CCCOc1ccc(-c2ccc3ncc4c(c3c2)n(C2CCOCC2)c(=O)n4C)cn1` [AZD0156] + CCN(CCO)CCCOc1ccc2c(Nc3cc(CC(=O)Nc4cccc(F)c4)[nH]n3)ncnc2c1 [AZD2811] (first compound max 1 µM, 7x7, partner max 1 µM), the Bliss excess in [1] is -0.0157; in experiment [2], -0.024; in [3] it was -0.0115; in [4] it was 0.0046; in [5], 0.032; with GI-1 (Glioblastoma) it was 0.0555. For the same compound, the Bliss excess in [6] is -0.0241; in the experiment on IMR-5 (Neuroblastoma), -0.0257; in experiment [7], -0.0245; in the experiment with BT-20 (Breast Carcinoma), -0.0276; in the experiment on EW-3 (Ewing's Sarcoma) it was -0.0458; in [8] it was -0.0019. Moreover, the Bliss excess is -0.108 in experiment [9]; 0.0232 in experiment [10]; -0.008 in experiment [11]; -0.039 with A704 (Kidney Carcinoma); -0.0152 in the experiment on RPMI-7951 (Melanoma); 0.057 in [12]. For the same compound, the Bliss excess in experiment [13] was -0.0086.

Consider `Cc1cc2ncnn2cc1Nc1ncc2c(n1)n(C1CCOCC1)c(=O)n2C` [AZD7648] + CN(C)CCCOc1ccc(-c2ccc3ncc4c(c3c2)n(C2CCOCC2)c(=O)n4C)cn1 [AZD0156] (first compound max 10 µM, 7x7, partner max 1 µM), for which the Bliss excess in [1] is -0.0085; in [2] it was 0.0454; in experiment [3] it was 0.0685; in experiment [4] it was 0.0452; in experiment [5], 0.0016; in the experiment with GI-1 (Glioblastoma), 0.0472. Further, the Bliss excess in experiment [6] is -0.0074; in the experiment with IMR-5 (Neuroblastoma) it was 0.009; in experiment [7], -0.0423; in the experiment on BT-20 (Breast Carcinoma), 0.0154; with EW-3 (Ewing's Sarcoma), -0.0281; in experiment [8], -0.0145. Also, the Bliss excess in [9] is 0.0127; in experiment [10] it was 0.0203; in [11], -0.0398; with A704 (Kidney Carcinoma), -0.0152; in the experiment on RPMI-7951 (Melanoma) it was -0.0164; in experiment [12], 0.0226. Moreover, the Bliss excess in experiment [13] was -0.0182.

Consider `COc1cccc(OCCCN)c1-c1cc(Nc2cnc(C#N)cn2)n[nH]1` [Prexasertib] + CN(C)CCCOc1ccc(-c2ccc3ncc4c(c3c2)n(C2CCOCC2)c(=O)n4C)cn1 [AZD0156] (first compound max 1 µM, 7x7, partner max 1 µM), for which the Bliss excess is -0.0309 in experiment [1]; -0.0374 in experiment [2]; -0.0448 in [3]; -0.0381 in [4]; 0.0558 in experiment [5]; 0.0084 in the experiment on GI-1 (Glioblastoma). Further, the Bliss excess in experiment [6] is -0.0037; in the experiment with IMR-5 (Neuroblastoma), -0.015; in [7], -0.0336; in the experiment on BT-20 (Breast Carcinoma), -0.026; in the experiment on EW-3 (Ewing's Sarcoma) it was -0.0437; in experiment [8] it was -0.0071. In addition, the Bliss excess in experiment [9] was -0.0113; in [10], -0.0532; in experiment [11] it was -0.0134; in the experiment with A704 (Kidney Carcinoma), 0.0033; in the experiment on RPMI-7951 (Melanoma), -0.0165; in [12], -0.0093. Also, in [13], the Bliss excess is -0.0286.

Consider `COc1cccc(OCCCN)c1-c1cc(Nc2cnc(C#N)cn2)n[nH]1` [Prexasertib] + O=C(c1cc(Cc2n[nH]c(=O)c3ccccc23)ccc1F)N1CCN(C(=O)C2CC2)CC1 [Olaparib] (first compound max 1 µM, 7x7, partner max 10 µM), for which the Bliss excess in experiment [1] was 0.0418; in [2], 0.0427; in [3], -0.017; in experiment [4], -0.127; in [5] it was -0.0645; with GI-1 (Glioblastoma), -0.0364. The Bliss excess in experiment [6] was -0.0339; in the experiment with IMR-5 (Neuroblastoma), -0.0097; in [7], -0.153; in the experiment on BT-20 (Breast Carcinoma) it was 0.0405; with EW-3 (Ewing's Sarcoma), -0.0378; in experiment [8], -0.0162. In addition, the Bliss excess was -0.0432 in experiment [9]; -0.0206 in experiment [10]; 0.0035 in [11]; -0.0973 in the experiment on A704 (Kidney Carcinoma); -0.0358 in the experiment with RPMI-7951 (Melanoma); -0.0819 in [12]. In addition, the Bliss excess in [13] is -0.0682.

With `COc1cc2c(cc1OCCCCCOc1cc3c(cc1OC)C(=O)N1C=C(C)C[C@H]1C=N3)N=C[C@@H]1CC(C)=CN1C2=O` [SG3199] + O=C(c1cc(Cc2n[nH]c(=O)c3ccccc23)ccc1F)N1CCN(C(=O)C2CC2)CC1 [Olaparib] (first compound max 0.001 µM, 7x7, partner max 10 µM), the Bliss excess in experiment [1] is -0.0212; in experiment [2], -0.0224; in experiment [3] it was 0.0069; in [4] it was -0.0477; in experiment [5] it was -0.0653; in the experiment with GI-1 (Glioblastoma) it was -0.0178. Besides, the Bliss excess in experiment [6] is -0.043; in the experiment with IMR-5 (Neuroblastoma), 0.0167; in experiment [7], -0.0446; with BT-20 (Breast Carcinoma), -0.0366; in the experiment with EW-3 (Ewing's Sarcoma), -0.0613; in [8] it was -0.0325. For the same compound, the Bliss excess in experiment [9] was -0.0371; in experiment [10], -0.0751; in experiment [11], -0.0164; with A704 (Kidney Carcinoma) it was -0.025; in the experiment on RPMI-7951 (Melanoma), 0.0032; in experiment [12], 0.0064. Moreover, in experiment [13], the Bliss excess is -0.0193.

As for `Cc1cc2ncnn2cc1Nc1ncc2c(n1)n(C1CCOCC1)c(=O)n2C` [AZD7648] + O=C(c1cc(Cc2n[nH]c(=O)c3ccccc23)ccc1F)N1CCN(C(=O)C2CC2)CC1 [Olaparib] (first compound max 10 µM, 7x7, partner max 10 µM), the Bliss excess in experiment [1] was -0.0205; in [2] it was -0.0301; in experiment [3] it was 0.0443; in [4] it was -0.0262; in experiment [5], -0.0571; with GI-1 (Glioblastoma), -0.0013. Moreover, the Bliss excess in experiment [6] is -0.0277; in the experiment with IMR-5 (Neuroblastoma), 0.0328; in experiment [7] it was -0.0619; in the experiment on BT-20 (Breast Carcinoma), -0.0492; with EW-3 (Ewing's Sarcoma) it was -0.0743; in [8], -0.0002. Besides, the Bliss excess in experiment [9] is -0.0517; in experiment [10], -0.0277; in [11] it was -0.0389; in the experiment with A704 (Kidney Carcinoma), -0.0821; in the experiment with RPMI-7951 (Melanoma), 0.0044; in experiment [12], 0.0465. Moreover, the Bliss excess in experiment [13] was -0.0017.

`CCN(CCO)CCCOc1ccc2c(Nc3cc(CC(=O)Nc4cccc(F)c4)[nH]n3)ncnc2c1` [AZD2811] + O=C(c1cc(Cc2n[nH]c(=O)c3ccccc23)ccc1F)N1CCN(C(=O)C2CC2)CC1 [Olaparib] (first compound max 1 µM, 7x7, partner max 10 µM): the Bliss excess in experiment [1] was -0.016; in experiment [2], 0.0461; in experiment [3], -0.0335; in experiment [4] it was 0.0237; in [5] it was 0.0383; with GI-1 (Glioblastoma), 0.0685. For the same compound, the Bliss excess in experiment [6] is -0.0075; with IMR-5 (Neuroblastoma), -0.0208; in experiment [7], -0.0016; in the experiment on BT-20 (Breast Carcinoma), 0.0358; with EW-3 (Ewing's Sarcoma), -0.103; in experiment [8], -0.0203. Moreover, the Bliss excess in experiment [9] is -0.0598; in experiment [10], 0.0524; in experiment [11], 0.0928; in the experiment with A704 (Kidney Carcinoma), -0.0195; in the experiment with RPMI-7951 (Melanoma) it was 0.0463; in experiment [12] it was 0.0063. Besides, the Bliss excess in [13] was -0.0123.
